Assay results taken from paper PMC6199279, “Design of Peptoid-peptide Macrocycles to Inhibit the β-catenin TCF Interaction in Prostate Cancer” (Nature Communications, 2018).
Numbered stars: 1 amine (or outer) side, 2 acyl side, 3 side chain; on linkers, the order of the positions; unused ones are H or OH. Square brackets hold non-standard residues; d marks the D form. Peptide text beside a SMILES is read from it. N(2-(2-PhOPh)Et)Gly = O=C(O)CNCCc1ccccc1Oc1ccccc1; Gly(N-3,5-(OMe)2-Ph) = COc1cc(NCC(=O)O)cc(OC)c1; X1 = COc1ccc([C@H](C)N(CC(=O)[*:2])[*:1])cc1; N((CH2)3OiPr)Gly = CC(C)OCCCNCC(=O)O

Key:
[1] = test system: LNCaP-abl and LNCaP-95 cells; assay: RT-qPCR of Wnt and AR target genes; assay type: cell-based; details: 10 µM, 24 h
Procedure: To test the effect of 13 in a model of prostate cancer, we used the LNCaP-abl and LNCaP-95 cell lines. These cell lines were derived from androgen-sensitive LNCaP cells, and passaged in androgen-deprived media to mimic the development of castration resistance in patient tumors[54],[55]. We first isolated mRNA from LNCaP-abl and LNCaP-95 cells treated with vehicle, 10 µM 13 and linear 13 for 24 h to check the expression of endogenous Wnt and AR target genes (Fig. 4a). […] AR-V7 is particularly challenging to target as most AR antagonists target the ligand binding domain. […] To check if the changes in Wnt and AR target gene expression translated into effects on growth, the viability of LNCaP-abl and LNCaP-95 cells was determined after 5 days of treatment (Fig. 4b).
Data are presented as mean and SD (n = 3) of three independent experiments (a) or representative of three independent experiments (b, c).
LNCaP-abl and LNCaP-95 cells were cultured in indicator free RPMI 1640 media (Life) supplemented with 10% charcoal stripped FBS, 1% pennicillin/streptomycin, and 1% L-Glutamine. HEK-293 Cells were cultured in DMEM media (Life) supplemented with 10%FBS and 1% pennicillin/streptomycin. A549 and U2OS cells were cultured in RPMI 1640 media (Life) and McCoy’s 5 A modified media (Life), respectively, both supplemented with 10%FBS and 1% pennicillin/streptomycin. LNCaP-abl, and LNCaP-95 cell lines were generous gifts from Z. Culig (Innsbruck Medical University, Austria) and J. Isaacs (Johns Hopkins University, Baltimore, MD), respectively. Cell lines were authenticated by STR profiling (Genetica Cell Line Testing; Burlington, NC). A549 and U2OS were purchased from ATCC (product numbers CCL-185 and HTB-96). Cell lines were routinely screened for mycoplasma. Luciferase assays were conducted using stably transfected TOP-flash and 3xARE LNCaP-abl cell lines. For the Wnt pathway, TOP-Flash LNCaP-abl cells were treated with 1 nM siAPC (a 1:1:1 mix of Ambion Silencer Silect siAPC RNA, ID#s s1433, s1434, s1435) for 24 h and seeded into 384-well plates at 5000 cells/well, followed by 24 h of treatment with compound. For the AR-pathway, 3xARE LNCaP-abl cells were seeded into 384-well plates at 5000 cells per well, treated for 48 h with compound, with the addition of R1881 for the final 8 h. Both were measured using the ONE-Glo detection kit (Promega) and data is standardized to CellTiter-Fluor (Promega) viability readings to account for potential variations in well to well cell number. Control Wnt inhibitors were purchased from Sigma with the exception of PRI-724 which was purchased from Selleckchem. Co-immunoprecipitation was carried out using HEK293 cells transfected with either myc-TCF (addgene #32738) or myc-TCF dominant negative (addgene #32739) followed by 48 h of treatment with compound. Cells were lysed using Triton lysis buffer and 1 mg total protein was incubated overnight at 4 C with 40 µl anti-cMyc magnetic beads (Thermo). Total protein concentration in cell lysates were determined using Pierce Rapid Gold BCA Protein Assay Kit (Thermo). The beads were washed 3× with lysis buffer then boiled in 2X sample loading dye.

β-catenin = target: T1, β-catenin (Homo sapiens, UniProt P35222); assay: Dynamic light scattering of β-catenin; assay type: binding; details: 10 µM compound vs 1% DMSO vehicle
T1 construct: His6-β-catenin armadillo domain, AA134-668; made in house; host or cells: E. coli BL21 DL3 (NEB)
T1 sequence (P35222 134-668): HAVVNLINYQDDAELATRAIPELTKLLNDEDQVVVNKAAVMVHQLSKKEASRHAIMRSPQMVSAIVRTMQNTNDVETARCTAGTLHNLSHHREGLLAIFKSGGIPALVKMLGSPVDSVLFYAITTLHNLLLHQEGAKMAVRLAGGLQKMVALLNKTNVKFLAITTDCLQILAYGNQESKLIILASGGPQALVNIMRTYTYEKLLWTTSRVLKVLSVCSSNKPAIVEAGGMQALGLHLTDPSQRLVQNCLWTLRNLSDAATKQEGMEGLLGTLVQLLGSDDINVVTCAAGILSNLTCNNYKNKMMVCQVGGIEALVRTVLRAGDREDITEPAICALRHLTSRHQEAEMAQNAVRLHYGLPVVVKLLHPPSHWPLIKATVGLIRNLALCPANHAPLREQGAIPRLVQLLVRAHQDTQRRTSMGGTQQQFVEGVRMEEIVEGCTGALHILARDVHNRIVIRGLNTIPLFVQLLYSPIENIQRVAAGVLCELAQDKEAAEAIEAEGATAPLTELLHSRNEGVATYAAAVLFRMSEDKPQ
Procedure: We next characterized the dose response curves for compound 13 in the Wnt and AR luciferase reporters. The linear version of 13 (linear 13: NH2-|N-mpp, N-dmp, N-ipp, N-Smpe, N-Smpe, D-Ala|-OH) was used as a control compound. […] To test direct binding, we pre-formed dynamic light scattering (DLS) with β-catenin in the presence of vehicle, compound 13, and α-cyclodextrin. […] HEK293 cells were transiently transfected with a plasmid expressing full length, myc-tagged TCF4. After 48 h treatment with either vehicle (DMSO) or 10 µM 13, cells were lysed and myc-TCF4 protein was immunoprecipitated.

Question: Which results are given for `COc1ccc([C@H](C)N2CC(=O)N[C@H](C)C(=O)N(CCc3ccccc3Oc3ccccc3)CC(=O)N(c3cc(OC)cc(OC)c3)CC(=O)N(CCCOC(C)C)CC(=O)N([C@@H](C)c3ccc(OC)cc3)CC2=O)cc1` [Compound 13] (cyclo([dA][N(2-(2-PhOPh)Et)Gly][Gly(N-3,5-(OMe)2-Ph)][N((CH2)3OiPr)Gly][X1][X1]))?
Answer: AR mRNA [1]: decreased; AR-V7 transcription [1]: decreased; Cyclin D1 mRNA [1]: decreased; E-cadherin transcription [1]: increased; FKBP5 mRNA [1]: decreased; PSA mRNA [1]: decreased; cMYC mRNA [1]: decreased; Shift in measured hydrodynamic radius of β-catenin (DLS) (β-catenin): significant shift
